This is an account of results in patent publication US11051515B2, “3-acyl-benzamides and their use as herbicides” (Bayer Aktiengesellschaft, priority 2017, dated 2021).

For assay [1], the system named is VERPE. The assay can be described thus: Post-emergence action against VERPE. The class given is in vivo, Veronica persica. The note with it: Veronica persica, 504 h, dosage 80 g/ha. The essentials:
(§1)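 Weeds grown in sandy loam in greenhouse, treated at one-leaf stage (2–3 weeks after sowing) with WP or EC formulations sprayed as aqueous suspension/emulsion at 600 to […] water with 0.2% wetting agent. Visual rating after about 3 weeks versus untreated controls, as % herbicidal action (100% = plants dead, 0% = like control).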

Assay [2] relates to AMARE. Nature of the assay: Post-emergence action against AMARE. The class given is in vivo, Amaranthus retroflexus. Particulars: for pest or weed control at 80 g/ha: Amaranthus retroflexus, 504 h, post-emergence, dosage 80 g/ha, visual assessment about 3 weeks after treatment vs untreated controls, read-out: Post-emergence action against AMARE (herbicidal action in percent); for Herbicidal efficacy against AMARE: 5 g of a.i./ha. The essentials:
as §1

Assay [3] concerns PHBPU. The assay can be described thus: Pre-emergence action against PHBPU. Format: in vivo, Pharbitis purpurea. Particulars: for pest or weed control at 320 g/ha: Ipomoea purpurea, 504 h, Dosage 320 g/ha, pre-emergence. The procedure, abridged:
(§2)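 Seeds sown in sandy loam in wood-fiber pots and covered with soil. Greenhouse growth; visual damage scored after 3 weeks versus untreated controls (100% = dead, 0% = like control).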

In assay [4] the test system is ALOMY. Nature of the assay: Pre-emergence action against ALOMY. Format: in vivo, Alopecurus myosuroides. The note with it: for pest or weed control at 320 g/ha: Alopecurus myosuroides, 504 h, dosage 320 g/ha, pre-emergence, scored visually after 3 weeks vs untreated controls, 100% = plants have died, 0% = like control plants, read-out: Pre-emergence action against ALOMY (herbicidal activity in percent); for Herbicidal efficacy against ALOMY: 80 g of a.i./ha. The procedure, abridged:
as §2

The subject of assay [5] is SETVI. The assay can be described thus: Pre-emergence action against SETVI. Format: in vivo, Setaria viridis. Particulars: for pest or weed control at 320 g/ha: Setaria viridis, 504 h, pre-emergence, dosage 320 g/ha, scored visually after 3 weeks vs untreated controls, read-out: SETVI (Table B8, pre-emergence herbicidal activity). The essentials: as §2
Assay [6] deals with LOLMU. The assay can be described thus: Post-emergence action against LOLMU. Format: in vivo, Lolium multiflorum. Particulars: Lolium multiflorum, 504 h, dosage 80 g/ha, visual assessment about 3 weeks after treatment vs untreated controls, read-out: Post-emergence action against LOLMU (herbicidal action in percent). The procedure, abridged:
as §1

Assay [7] deals with ALOMY. Nature of the assay: Post-emergence action against ALOMY. Format: in vivo, Alopecurus myosuroides. The note with it: for pest or weed control at 80 g/ha: Alopecurus myosuroides, 504 h, Dosage 80 g/ha, post-emergence. The procedure, abridged: as §1
In assay [8] the test system is DIGSA. The assay can be described thus: Post-emergence action against DIGSA. The class given is in vivo, Digitaria sanguinalis. The note with it: dosage 80 g/ha, visual assessment about 3 weeks after treatment vs untreated controls. The procedure, abridged: as §1
Assay [9] concerns LOLRI. Nature of the assay: Post-emergence action against LOLRI. Format: in vivo, Lolium rigidum. Particulars: Lolium rigidum, 504 h, dosage 80 g/ha, visual assessment about 3 weeks after treatment vs untreated controls, read-out: Post-emergence action against LOLRI (herbicidal action in percent). The procedure, abridged: as §1
For assay [10], the system named is LOLRI. Nature of the assay: Pre-emergence action against LOLRI. The class given is in vivo, Lolium rigidum. Particulars: Lolium rigidum, 504 h, dosage 320 g/ha, scored visually after 3 weeks vs untreated controls, read-out: Pre-emergence action against LOLRI (herbicidal activity). The procedure, abridged: as §2
The subject of assay [11] is DIGSA. The assay can be described thus: Pre-emergence action against DIGSA. The class given is in vivo, Digitaria sanguinalis. The note with it: dosage 320 g/ha, scored visually after 3 weeks vs untreated controls. The essentials:
as §2

Assay [12] relates to VERPE. Nature of the assay: Pre-emergence action against VERPE. Format: in vivo, Veronica persica. The note with it: for pest or weed control at 320 g/ha: Veronica persica, 504 h, Dosage 320 g/ha, pre-emergence. The essentials:
as §2

In assay [13] the test system is HORMU. Nature of the assay: Pre-emergence action against HORMU. Format: in vivo, Hordeum murinum. The note with it: Hordeum murinum, 504 h, Dosage 320 g/ha. The procedure, abridged:
as §2

Assay [14] has as its system LOLMU. The assay can be described thus: Pre-emergence action against LOLMU. Format: in vivo, Lolium multiflorum. The note with it: Lolium multiflorum, 504 h, dosage 320 g/ha, scored visually after 3 weeks vs untreated controls, read-out: Pre-emergence action against LOLMU (herbicidal activity). The procedure, abridged: as §2
Where [15] appears, read: Table V2, pre-emergence, 20 g of a.i./ha.

As to `Cc1c(C(=O)Nc2nnnn2C)ccc(S(C)(=O)=O)c1C(=O)C1CC1` [1-9], the pest or weed control at 80 g/ha in [1] was 100%; in [2], 90%; in assay [6] it was 90%; in assay [7] it was 100%. Moreover, in assay [3] (Table V6, pre-emergence, 80 g of a.i./ha), the “Herbicidal efficacy against PHBPU” value was 60. Moreover, the values for the pest or weed control at 320 g/ha in assay [4] and in assay [5] were 90% and 100%, respectively. Further, the “Herbicidal efficacy against SETVI” value in [5] (Table V9, pre-emergence, 80 g of a.i./ha) amounted to 100. For the same molecule, the “Herbicidal efficacy against ALOMY” value in [7] (Table V18, post-emergence, 20 g of a.i./ha) came out at 80.
As to `CCCC(=O)c1c(C(F)(F)F)ccc(C(=O)Nc2nnnn2C)c1C` [1-16], the pest or weed control at 80 g/ha in assay [1] was found to be 90%; in assay [9], 80%; in assay [2], 100%; in assay [7], 90%. Also, the “Post-emergence action against DIGSA (herbicidal action in percent)” value in assay [8] is reported as 90%. The pest or weed control at 320 g/ha in assay [10] came to 100%; in assay [3], 90%; in [4], 90%; in [12], 100%; in assay [13], 90%; in assay [5] it was 100%. Also, the “Pre-emergence action against DIGSA (herbicidal activity)” value in [11] was found to be 100%.
With `COc1c(C(=O)Nc2nnnn2C)ccc(C(F)(F)F)c1C(=O)C1CC1` [1-50], the pest or weed control at 80 g/ha in assay [1] worked out at 100%; in assay [2], 90%; in assay [6], 90%; in assay [7], 80%. Besides, the pest or weed control at 320 g/ha in assay [3], in assay [4], in assay [14], in [12] and in assay [5] was 100% each time.
Turning to `CSc1c(C(=O)Nc2nnnn2C)ccc(C(F)(F)F)c1C(C)=O` [1-58], the pest or weed control at 80 g/ha came out at 100% in [1], 100% in assay [2], 80% in assay [6] and 90% in assay [7]. Moreover, the pest or weed control at 320 g/ha amounted to 100% in [3]; 100% in assay [4]; 90% in assay [14]; 100% in assay [12]; 100% in assay [5].
For the molecule `CC(=O)c1c(S(C)(=O)=O)ccc(C(=O)Nc2nnnn2C)c1Cl` [1-127], the pest or weed control at 80 g/ha in [1] and in assay [2] was 100% each time. For the same molecule, the “Herbicidal efficacy against AMARE” value in assay [2] (Table V14, post-emergence) turned out to be 100. In addition, the pest or weed control at 320 g/ha in [3] stood at 90%; in [4], 100%; in assay [14] it was 80%; in assay [12] it was 100%; in assay [5], 90%. Besides, the “Herbicidal efficacy against ALOMY” value was 80 in [4] (Table V1, pre-emergence) and 80 in [4] (Table V3, pre-emergence). Besides, in [12] (Table V4, pre-emergence, 20 g of a.i./ha), the “Herbicidal efficacy against VERPE” value stood at 90.
In the case of `Cn1nnnc1NC(=O)c1ccc(S(C)(=O)=O)c(C(=O)C2CC2)c1Cl` [1-129], the pest or weed control at 80 g/ha was 100% in assay [1], 100% in assay [2], 80% in assay [6] and 100% in [7]. For the same molecule, in assay [2] (Table V15, post-emergence), the “Herbicidal efficacy against AMARE” value is given as 100. For the same molecule, the pest or weed control at 320 g/ha in assay [3], in [4], in assay [14], in assay [12] and in assay [5] was 100% throughout. In addition, the “Herbicidal efficacy against ALOMY” value was 100 in assay [4] (Table V3, pre-emergence) and 70 in assay [7] (Table V15, post-emergence, 5 g of a.i./ha). The molecule also gave a VERPE in assay [12] (setting [15]) of 100. The SETVI in assay [5] (setting [15]) stood at 90.
For the molecule `CC(=O)c1c(C(F)(F)F)ccc(C(=O)Nc2nnnn2C)c1Cl` [1-137, 3-acetyl-2-chloro-N-(1-methyl-1H-tetrazol-5-yl)-4-(trifluoromethyl)benzamide], the pest or weed control at 80 g/ha in [1] worked out at 90%; in assay [2], 90%; in assay [6] it was 100%; in assay [7], 80%. Further, the pest or weed control at 320 g/ha in [3] stood at 90%; in [4], 90%; in assay [14], 100%; in [12], 100%; in assay [5] it was 100%.
As for `Cn1nnnc1NC(=O)c1ccc(C(F)(F)F)c(C(=O)C2CC2)c1Cl` [1-141], the pest or weed control at 80 g/ha in assay [1], in [2], in [6] and in [7] was 100% throughout. Moreover, the pest or weed control at 320 g/ha in assay [3], in assay [4], in assay [14], in assay [12] and in [5] was 100% in each case.
On to `CC(=O)c1c(C(F)F)ccc(C(=O)Nc2nnnn2C)c1Cl` [1-164], for which the pest or weed control at 80 g/ha in assay [1] turned out to be 100%; in [9], 90%; in assay [2] it was 100%; in assay [7], 90%. In addition, the pest or weed control at 320 g/ha in [10] is 100%; in assay [3] it was 100%; in [4], 100%; in [12] it was 100%; in assay [13], 90%; in assay [5] it was 100%.
For the molecule `CCC(=O)c1c(C(F)F)ccc(C(=O)Nc2nnnn2C)c1Cl` [1-165], the pest or weed control at 80 g/ha in [1] stood at 90%; in [9], 80%; in assay [2], 90%; in assay [7], 90%. Also, in [8], the “Post-emergence action against DIGSA (herbicidal action in percent)” value is reported as 100%. In addition, the pest or weed control at 320 g/ha came to 100% in assay [10]; 100% in [3]; 100% in assay [4]; 100% in [12]; 90% in assay [13]; 100% in [5]. In addition, the “Pre-emergence action against DIGSA (herbicidal activity)” value in [11] amounted to 100%.
